# In ChEMBL document CHEMBL2203120, “Contribution to investigation of antimicrobial activity of styrylquinolines” (Bioorg Med Chem, 2012):
# Key:
# Candida albicans [1] = test: Antimicrobial activity against Candida albicans ATCC 44859 after 24 hrs by broth microdilution test; format: functional; settings: ATCC 44859, 24 h
# Nakaseomyces glabratus [2] = test: Antimicrobial activity against Candida glabrata 20/I after 24 hrs by broth microdilution test; format: functional
# Pichia kudriavzevii [3] = test: Antimicrobial activity against Candida krusei ATCC 6258 after 24 hrs by broth microdilution test; format: functional; settings: ATCC 6258, 24 h
# Staphylococcus aureus [4] = test: Antimicrobial activity against Staphylococcus aureus CCM 4516/08 after 48 hrs by broth microdilution method; format: functional; settings: CCM 4516/08, 48 h
# [5] = tested on: Staphylococcus epidermidis; test: Antimicrobial activity against Staphylococcus epidermidis H 6966/08 after 48 hrs by broth microdilution method; format: functional; settings: H 6966/08, 48 h
# [6] = Lipophilicity, log P of compound by RP-HPLC analysis; format: physicochemical
# Staphylococcus aureus [7] = test: Antimicrobial activity against methicillin-resistant Staphylococcus aureus H 5996/08 after 48 hrs by broth microdilution method; format: functional; settings: H 5996/08, 48 h
# [8] = tested on: Trichophyton mentagrophytes; test: Antimicrobial activity against Trichophyton mentagrophytes 445 after 72 hrs by broth microdilution test; format: functional; settings: Trichophyton mentagrophytes, 445, 72 h
# Lichtheimia corymbifera [9] = test: Antimicrobial activity against Absidia corymbifera 272 after 24 hrs by broth microdilution test; format: functional; settings: Lichtheimia corymbifera, 272, 24 h
# Staphylococcus aureus [10] = test: Antimicrobial activity against methicillin-resistant Staphylococcus aureus H 5996/08 after 24 hrs by broth microdilution method; format: functional; settings: H 5996/08, 24 h
# [11] = tested on: Staphylococcus epidermidis; test: Antimicrobial activity against Staphylococcus epidermidis H 6966/08 after 24 hrs by broth microdilution method; format: functional; settings: H 6966/08, 24 h
# Trichosporon beigelii [12] = test: Antimicrobial activity against Trichosporon beigelii 1188 after 24 hrs by broth microdilution test; format: functional; settings: Trichosporon beigelii, 1188, 24 h
# Staphylococcus aureus [13] = test: Antimicrobial activity against Staphylococcus aureus CCM 4516/08 after 24 hrs by broth microdilution method; format: functional; settings: CCM 4516/08, 24 h
# Candida tropicalis [14] = test: Antimicrobial activity against Candida tropicalis 156 after 24 hrs by broth microdilution test; format: functional; settings: Candida tropicalis, 156, 24 h
# Aspergillus fumigatus [15] = test: Antimicrobial activity against Aspergillus fumigatus 231 after 24 hrs by broth microdilution test; format: functional; settings: Aspergillus fumigatus, 231, 24 h
# Trichosporon beigelii [16] = test: Antimicrobial activity against Trichosporon beigelii 1188 after 48 hrs by broth microdilution test; format: functional; settings: Trichosporon beigelii, 1188, 48 h
# Candida tropicalis [17] = test: Antimicrobial activity against Candida tropicalis 156 after 48 hrs by broth microdilution test; format: functional; settings: Candida tropicalis, 156, 48 h
# Lichtheimia corymbifera [18] = test: Antimicrobial activity against Absidia corymbifera 272 after 48 hrs by broth microdilution test; format: functional; settings: Lichtheimia corymbifera, 272, 48 h
# Candida albicans [19] = test: Antimicrobial activity against Candida albicans ATCC 44859 after 48 hrs by broth microdilution test; format: functional; settings: ATCC 44859, 48 h
# [20] = tested on: Trichophyton mentagrophytes; test: Antimicrobial activity against Trichophyton mentagrophytes 445 after 120 hrs by broth microdilution test; format: functional; settings: Trichophyton mentagrophytes, 445, 120 h
# Pichia kudriavzevii [21] = test: Antimicrobial activity against Candida krusei ATCC 6258 after 48 hrs by broth microdilution test; format: functional; settings: ATCC 6258, 48 h
# Aspergillus fumigatus [22] = test: Antimicrobial activity against Aspergillus fumigatus 231 after 48 hrs by broth microdilution test; format: functional; settings: Aspergillus fumigatus, 231, 48 h
# Nakaseomyces glabratus [23] = test: Antimicrobial activity against Candida glabrata 20/I after 48 hrs by broth microdilution test; format: functional
structure (smiles),measurement,setting,value
Oc1ccccc1/C=C/c1ccc2ccccc2n1,MIC80,Candida albicans [1],> 125 µM
same,MIC80,Nakaseomyces glabratus [2],> 125 µM
same,MIC80,Pichia kudriavzevii [3],> 125 µM
same,MIC90,Staphylococcus aureus [4],> 250 µM
same,MIC90,[5],> 250 µM
same,logP,[6],4.34
same,MIC90,Staphylococcus aureus [7],> 250 µM
same,MIC50,[8],> 125 µM
same,MIC50,Lichtheimia corymbifera [9],> 125 µM
same,MIC90,Staphylococcus aureus [10],> 250 µM
same,MIC90,[11],> 500 µM
same,MIC80,Trichosporon beigelii [12],> 125 µM
same,MIC90,Staphylococcus aureus [13],> 250 µM
same,MIC80,Candida tropicalis [14],> 125 µM
same,MIC50,Aspergillus fumigatus [15],> 125 µM
Oc1cccc2ccc(/C=C/c3ccccc3Cl)nc12,MIC80,Candida albicans [1],> 500 µM
same,MIC80,Nakaseomyces glabratus [2],> 500 µM
same,MIC80,Pichia kudriavzevii [3],> 500 µM
same,MIC90,Staphylococcus aureus [4],> 500 µM
same,MIC90,[5],> 500 µM
same,logP,[6],4.9
same,MIC90,Staphylococcus aureus [7],> 500 µM
same,MIC50,[8],> 500 µM
same,MIC50,Lichtheimia corymbifera [9],> 500 µM
same,MIC90,Staphylococcus aureus [10],> 500 µM
same,MIC90,[11],> 500 µM
same,MIC80,Trichosporon beigelii [12],> 500 µM
same,MIC90,Staphylococcus aureus [13],> 500 µM
same,MIC80,Candida tropicalis [14],> 500 µM
same,MIC50,Aspergillus fumigatus [15],> 500 µM
Clc1ccccc1/C=C/c1ccc2ccccc2n1,MIC80,Candida albicans [1],> 500 µM
same,MIC80,Nakaseomyces glabratus [2],> 500 µM
same,MIC80,Pichia kudriavzevii [3],> 500 µM
same,MIC90,Staphylococcus aureus [4],> 500 µM
same,MIC90,[5],> 500 µM
same,logP,[6],5.25
same,MIC90,Staphylococcus aureus [7],> 500 µM
same,MIC50,[8],> 500 µM
same,MIC50,Lichtheimia corymbifera [9],> 500 µM
same,MIC90,Staphylococcus aureus [10],> 500 µM
same,MIC90,[11],> 500 µM
same,MIC80,Trichosporon beigelii [12],> 500 µM
same,MIC90,Staphylococcus aureus [13],> 500 µM
same,MIC80,Candida tropicalis [14],> 500 µM
same,MIC50,Aspergillus fumigatus [15],> 500 µM
CCOc1ccc(/C=C/c2ccc3ccccc3n2)cc1,MIC80,Candida albicans [1],> 500 µM
same,MIC80,Nakaseomyces glabratus [2],> 500 µM
same,MIC80,Pichia kudriavzevii [3],> 500 µM
same,MIC90,Staphylococcus aureus [4],> 500 µM
same,MIC90,[5],> 500 µM
same,logP,[6],4.61
same,MIC90,Staphylococcus aureus [7],> 500 µM
same,MIC50,[8],> 500 µM
same,MIC50,Lichtheimia corymbifera [9],> 500 µM
same,MIC90,Staphylococcus aureus [10],> 500 µM
same,MIC90,[11],> 500 µM
same,MIC80,Trichosporon beigelii [12],> 500 µM
same,MIC90,Staphylococcus aureus [13],> 500 µM
same,MIC80,Candida tropicalis [14],> 500 µM
same,MIC50,Aspergillus fumigatus [15],> 500 µM
Clc1ccccc1/C=C/c1ccc2cccc(Cl)c2n1,MIC80,Candida albicans [1],> 500 µM
same,MIC80,Nakaseomyces glabratus [2],> 500 µM
same,MIC80,Pichia kudriavzevii [3],> 500 µM
same,MIC90,Staphylococcus aureus [4],> 500 µM
same,MIC90,[5],> 500 µM
same,logP,[6],5.85
same,MIC90,Staphylococcus aureus [7],> 500 µM
same,MIC50,[8],> 500 µM
same,MIC50,Lichtheimia corymbifera [9],> 500 µM
same,MIC90,Staphylococcus aureus [10],> 500 µM
same,MIC90,[11],> 500 µM
same,MIC80,Trichosporon beigelii [12],> 500 µM
same,MIC90,Staphylococcus aureus [13],> 500 µM
same,MIC80,Candida tropicalis [14],> 500 µM
same,MIC50,Aspergillus fumigatus [15],> 500 µM
Oc1ccc(/C=C/c2ccc3cccc(O)c3n2)c(O)c1,MIC80,Candida albicans [1],125 µM
same,MIC80,Nakaseomyces glabratus [2],62.5 µM
same,MIC80,Pichia kudriavzevii [3],62.5 µM
same,MIC90,Staphylococcus aureus [4],31.2 µM
same,MIC90,[5],250 µM
same,logP,[6],3.56
same,MIC80,Trichosporon beigelii [16],125 µM
same,MIC80,Candida tropicalis [17],> 125 µM
same,MIC90,Staphylococcus aureus [7],62.5 µM
same,MIC50,Lichtheimia corymbifera [18],> 125 µM
same,MIC80,Candida albicans [19],> 125 µM
same,MIC50,[20],62.5 µM
same,MIC50,[8],31.2 µM
same,MIC50,Lichtheimia corymbifera [9],> 125 µM
same,MIC80,Pichia kudriavzevii [21],125 µM
same,MIC90,Staphylococcus aureus [10],31.2 µM
same,MIC50,Aspergillus fumigatus [22],125 µM
same,MIC90,[11],125 µM
same,MIC80,Trichosporon beigelii [12],62.5 µM
same,MIC80,Nakaseomyces glabratus [23],125 µM
same,MIC90,Staphylococcus aureus [13],15.6 µM
same,MIC80,Candida tropicalis [14],> 125 µM
same,MIC50,Aspergillus fumigatus [15],125 µM
CCOc1ccccc1/C=C/c1ccc2cccc(O)c2n1,MIC80,Candida albicans [1],> 500 µM
same,MIC80,Nakaseomyces glabratus [2],> 500 µM
same,MIC80,Pichia kudriavzevii [3],> 500 µM
same,MIC90,Staphylococcus aureus [4],> 500 µM
same,MIC90,[5],> 500 µM
same,logP,[6],4.55
same,MIC90,Staphylococcus aureus [7],> 500 µM
same,MIC50,[8],> 500 µM
same,MIC50,Lichtheimia corymbifera [9],> 500 µM
same,MIC90,Staphylococcus aureus [10],> 500 µM
same,MIC90,[11],> 500 µM
same,MIC80,Trichosporon beigelii [12],> 500 µM
same,MIC90,Staphylococcus aureus [13],> 500 µM
same,MIC80,Candida tropicalis [14],> 500 µM
same,MIC50,Aspergillus fumigatus [15],> 500 µM
CCOc1ccc(/C=C/c2ccc3cccc(O)c3n2)cc1,MIC80,Candida albicans [1],> 500 µM
same,MIC80,Nakaseomyces glabratus [2],> 250 µM
same,MIC80,Pichia kudriavzevii [3],> 500 µM
same,MIC90,Staphylococcus aureus [4],> 500 µM
same,MIC90,[5],> 500 µM
same,logP,[6],4.55
same,MIC90,Staphylococcus aureus [7],> 500 µM
same,MIC50,[8],> 500 µM
same,MIC50,Lichtheimia corymbifera [9],> 500 µM
same,MIC90,Staphylococcus aureus [10],> 500 µM
same,MIC90,[11],> 500 µM
same,MIC80,Trichosporon beigelii [12],> 250 µM
same,MIC90,Staphylococcus aureus [13],> 500 µM
same,MIC80,Candida tropicalis [14],> 500 µM
same,MIC50,Aspergillus fumigatus [15],> 500 µM
Oc1c(Cl)cc(Cl)c2ccc(/C=C/c3ccccc3Cl)nc12,logP,[6],6.02
Oc1ccccc1/C=C/c1ccc2c(Cl)cc(Cl)c(O)c2n1,logP,[6],5.07
